27 compounds from patent US8546377B2 (AbbVie Inc., priority 2009, dated 2013) can be followed below.

For test [1], the target named is T1, 5HT2C receptors (Homo sapiens, UniProt P28335).
T1 sequence (P28335 33-458): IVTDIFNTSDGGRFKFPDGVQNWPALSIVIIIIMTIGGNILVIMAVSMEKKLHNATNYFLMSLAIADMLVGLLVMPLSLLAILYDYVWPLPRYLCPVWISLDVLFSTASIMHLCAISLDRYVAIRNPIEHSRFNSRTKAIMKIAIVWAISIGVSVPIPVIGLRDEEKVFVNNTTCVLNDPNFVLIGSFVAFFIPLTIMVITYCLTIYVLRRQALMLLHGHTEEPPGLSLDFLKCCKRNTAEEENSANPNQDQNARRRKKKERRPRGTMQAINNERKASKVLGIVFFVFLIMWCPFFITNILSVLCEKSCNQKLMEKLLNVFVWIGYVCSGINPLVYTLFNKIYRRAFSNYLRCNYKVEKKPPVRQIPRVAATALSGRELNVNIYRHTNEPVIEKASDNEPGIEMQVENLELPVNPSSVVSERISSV
Nature of the test: Human 5-HT2C functional assay in 1321N1 cells (intracellular calcium, FLIPR). The format is cell-based. More on the design: expressed in transfected cells; host or cells: 1321N1 cells. The following applies: for EC50: 1321N1 cells stably transfected, maximum calcium response, read-out: EC50 (μM), 5-HT2c Agonist Activity; for Emax: 1321N1 cells, percentage relative to the effect of serotonin, read-out: Emax (%), 5-HT2c Agonist Activity. As to the method: (ii) Human 5-HT2C Functional Assay in 1321N1 Cells
Functional activity was determined by testing the effect of the compounds on intracellular calcium levels in 1321N1 cells stably transfected with the human 5-HT2C receptor. Cells were seeded into 96-well plates at 50,000 cells/well and grown overnight in tissue culture medium (DMEM with Glutamax I (Invitrogen), containing 10% dFCS, 50 μg/mL Gentamicin, 400 μg/mL Geneticin) at 37° C. and 7% CO2. Growth medium was replaced by medium without dFCS for overnight incubation. Cells were loaded with a fluorescent calcium-sensitive dye in the presence of 1% probenicid according to the manufacturer's protocol (Fluo4 AM, Molecular Devices). Serial compound dilutions (final concentrations 10^−10 to 10^−5 M) were added to the cells either alone or in the presence of serotonin (10^−9 M) and the maximum calcium response was determined using a FLIPR instrument (Molecular Devices). Concentration-response curves were fitted using a four-parameter logistic equation (GraphPad Prism). The concentration at which the compound exerts half its maximal effect is named the ‘effective concentration 50’ or ‘EC50’ and is listed in Table 2.
Emax is the maximum functional response or efficacy expressed as a percentage relative to the effect of serotonin.
A general note: Calcium assays in cells follow changes in intracellular calcium, usually with a dye or a luminescent sensor.

The target of test [2] is T2, human serotonin 5-HT2c receptor (Homo sapiens, UniProt P28335).
T2 construct: expressed in transfected cells; host or cells: CHO cells (membrane homogenate)
T2 sequence (P28335 33-458): T1 sequence (P28335 33-458)
Nature of the test: Human 5-HT2C receptor radioligand binding assay (agonist site, [125I](±)DOI). The settings on record: membranes of transfected CHO cells, 0.2 nM [125I](±)DOI, 15 minutes at 37° C. On the procedure: To determine the effectiveness of compounds having a formula (I), these compounds can be evaluated in a radioligand binding assay for the agonist site of the human serotonin 5-HT2c receptor or in vitro models of cellular function.
(i) Human 5-HT2C Receptor Radioligand Binding Assay
Affinity of compounds for the agonist site of the 5-HT2c receptor in transfected CHO cells was determined in a radioligand binding assay essentially as described by Bryant, H. U., et al., Life Sciences (1996) 59(15), 1259-1268.

Broadly, the EC50 is the concentration needed to bring the measured effect to its halfway point. What is called Ki is a dissociation constant, usually derived from enzyme kinetics or from competition with a known ligand. Low values mean tighter binding, high ones weaker binding. Take `O=C1CC2CN(Cc3ccccc3)CCN2c2cc(Cl)ccc2N1` (centres unmarked) [Example 24, 3-benzyl-10-chloro-1,2,3,4,4a,5-hexahydropyrazino[1,2-a][1,5]benzodiazepin-6(7H)-one]: the EC50 in test [1] was 0.942 µM. The compound also came in with a Ki in test [2] of 0.36 µM.

A word on the Emax: it is the greatest response seen or fitted, relative to the assay's reference. With `O=C1CC2CNCCN2c2cc(Cl)c(Cl)cc2N1` (centres unmarked) [Example 15, 9,10-dichloro-1,2,3,4,4a,5-hexahydropyrazino[1,2-a][1,5]benzodiazepin-6(7H)-one], in test [1], the EC50 was 0.0081 µM and the Emax is 104%. The affinity in test [2], expressed as Ki, was 0.017 µM.

In the case of `Cc1ccc2c(c1)N1CCNCC1CC(=O)N2` (centres unmarked) [Example 10, 10-methyl-1,2,3,4,4a,5-hexahydropyrazino[1,2-a][1,5]benzodiazepin-6(7H)-one], in test [1], the 50% effective concentration (EC50) is 0.003 µM and the Emax is 99%. The compound also registered a Ki in test [2] of 0.0083 µM.

On to `N#Cc1ccc2c(c1)N1CCNCC1CC(=O)N2` (centres unmarked) [Example 11, 6-oxo-1,2,3,4,4a,5,6,7-octahydropyrazino[1,2-a][1,5]benzodiazepine-10-carbonitrile], for which, in test [1], the EC50 was found to be 0.0938 µM and the Emax stood at 104%. In test [2], this compound showed a Ki of 0.19 µM.

On to `O=C1CC2CNCCN2c2ccccc2N1` (centres unmarked) [Example 1, 1,2,3,4,4a,5-hexahydropyrazino[1,2-a][1,5]benzodiazepin-6(7H)-one], for which, in test [1], the EC50 is 0.0135 µM and the Emax stood at 100%. This compound registered a Ki in test [2] of 0.086 µM.

In the case of `O=C1CC2CNCCN2c2cc(-c3ccccc3)ccc2N1` (centres unmarked) [Example 5, 10-phenyl-1,2,3,4,4a,5-hexahydropyrazino[1,2-a][1,5]benzodiazepin-6(7H)-one], in test [1], the EC50 worked out at 0.0849 µM and the Emax was 86%. For the same compound, in test [2], affinity was put at a Ki of 0.074 µM.

As for `Clc1ccccc1CN1CCC2CNCCN2c2ccccc21` (centres unmarked) [Example 21, 7-(2-chlorobenzyl)-1,2,3,4,4a,5,6,7-octahydropyrazino[1,2-a][1,5]benzodiazepine], in test [1], the EC50 worked out at 0.044 µM and the Emax is 93%. Further, the Ki in test [2] is 0.097 µM.

Turning to `O=C1CC2CNCCN2c2cc(Cl)ccc2N1` (centres unmarked) [Example 3, 10-chloro-1,2,3,4,4a,5-hexahydropyrazino[1,2-a][1,5]benzodiazepin-6(7H)-one], in test [1], the EC50 was found to be 0.0017 µM and the Emax came out at 93%. Also, in test [2], the Ki is 0.012 µM.

On to `O=C1CC2CNCCN2c2cc(/C=C/c3cccc(F)c3)ccc2N1` (centres unmarked) [Example 9, 10-[(E)-2-(3-fluorophenyl)vinyl]-1,2,3,4,4a,5-hexahydropyrazino[1,2-a][1,5]benzodiazepin-6(7H)-one], for which the affinity in test [2] corresponds to a Ki of 0.0032 µM.

As to `O=C1CC2CNCCN2c2c(Br)cccc2N1` (centres unmarked) [Example 30, 11-bromo-1,2,3,4,4a,5-hexahydropyrazino[1,2-a][1,5]benzodiazepin-6(7H)-one], in test [1], the EC50 was 0.0017 µM and the Emax is 113%. Also, in test [2], the inhibition constant Ki was 0.016 µM.

Take `Clc1ccc2c(c1)N1CCNCC1CCN2` (centres unmarked) [Example 18, 10-chloro-1,2,3,4,4a,5,6,7-octahydropyrazino[1,2-a][1,5]benzodiazepine]: in test [1], the EC50 amounted to 0.0037 µM and the Emax worked out at 108%. This compound also returned a Ki in test [2] of 0.018 µM.

With `O=C1CC2CNCCN2c2cc(/C=C/c3cccc(Cl)c3)ccc2N1` (centres unmarked) [Example 25, 10-[(E)-2-(3-chlorophenyl)vinyl]-1,2,3,4,4a,5-hexahydropyrazino[1,2-a][1,5]benzodiazepin-6(7H)-one], in test [1], the EC50 worked out at 0.0145 µM and the Emax was 101%. In test [2], this compound showed an inhibition constant (Ki) of 0.0014 µM.

Turning to `O=C1CC2CNCCN2c2cc(/C=C/c3ccc(Cl)cc3)ccc2N1` (centres unmarked) [Example 27, 10-[(E)-2-(4-chlorophenyl)vinyl]-1,2,3,4,4a,5-hexahydropyrazino[1,2-a][1,5]benzodiazepin-6(7H)-one], in test [1], the EC50 stood at 0.183 µM and the Emax was 96.5%. Further, the Ki in test [2] turned out to be 0.013 µM.

As to `c1ccc2c(c1)NCCC1CNCCN21` (centres unmarked) [Example 17, 1,2,3,4,4a,5,6,7-octahydropyrazino[1,2-a][1,5]benzodiazepine], in test [1], the EC50 came out at 0.073 µM and the maximal response (Emax) amounted to 111%. This compound also had a Ki in test [2] of 0.14 µM.

Regarding `O=C1CC2CNCCN2c2cc(/C=C/c3ccc(F)cc3)ccc2N1` (centres unmarked) [Example 26, 10-[(E)-2-(4-fluorophenyl)vinyl]-1,2,3,4,4a,5-hexahydropyrazino[1,2-a][1,5]benzodiazepin-6(7H)-one], in test [1], the EC50 worked out at 0.0855 µM and the Emax came out at 98.5%. Also, in test [2], affinity was put at a Ki of 0.032 µM.

As for `O=C1CC2CNCCN2c2cc(-c3cccc(Cl)c3)ccc2N1` (centres unmarked) [Example 7, 10-(3-chlorophenyl)-1,2,3,4,4a,5-hexahydropyrazino[1,2-a][1,5]benzodiazepin-6(7H)-one], in test [1], the EC50 was 0.0279 µM and the Emax turned out to be 86%. This compound also displayed a Ki in test [2] of 0.041 µM.

`O=C1CC2CNCCN2c2cc(C(F)(F)F)ccc2N1` (centres unmarked) [Example 31, 10-(trifluoromethyl)-1,2,3,4,4a,5-hexahydropyrazino[1,2-a][1,5]benzodiazepin-6(7H)-one]: in test [1], the EC50 was found to be 0.0204 µM and the Emax stood at 118%. Besides, in test [2], the Ki amounted to 0.087 µM.

For the compound `CCN1CCN2c3ccccc3NC(=O)CC2C1` (centres unmarked) [Example 23, 3-ethyl-1,2,3,4,4a,5-hexahydropyrazino[1,2-a][1,5]benzodiazepin-6(7H)-one], in test [1], the EC50 was 0.165 µM and the Emax turned out to be 87%. The compound also returned a Ki in test [2] of 0.19 µM.

For the compound `Clc1cc2c(cc1Cl)N1CCNCC1CCN2` (centres unmarked) [Example 16, 9,10-dichloro-1,2,3,4,4a,5,6,7-octahydropyrazino[1,2-a][1,5]benzodiazepine], in test [1], the EC50 was 0.0018 µM and the Emax was found to be 91%. The compound also came in with a Ki in test [2] of 0.004 µM.

As to `COc1ccc2c(c1)N1CCNCC1CC(=O)N2` (centres unmarked) [Example 12, 10-methoxy-1,2,3,4,4a,5-hexahydropyrazino[1,2-a][1,5]benzodiazepin-6(7H)-one], in test [1], the EC50 was found to be 0.0381 µM and the Emax was 83.5%. In addition, the affinity in test [2] corresponds to a Ki of 0.038 µM.

Take `O=C1CC2CNCCN2c2cc(/C=C/c3ccc(F)cc3F)ccc2N1` (centres unmarked) [Example 28, 10-[(E)-2-(2,4-difluorophenyl)vinyl]-1,2,3,4,4a,5-hexahydropyrazino[1,2-a][1,5]benzodiazepin-6(7H)-one]: in test [1], the EC50 worked out at 0.131 µM and the maximal response (Emax) is 92%. This compound had a Ki in test [2] of 0.036 µM.

In test [2], `O=C1CC2CNCCN2c2cc(-c3ccccc3Cl)ccc2N1` (centres unmarked) [Example 8, 10-(2-chlorophenyl)-1,2,3,4,4a,5-hexahydropyrazino[1,2-a][1,5]benzodiazepin-6(7H)-one] showed a Ki of 0.14 µM.

As for `O=C1CC2CNCCN2c2cc(/C=C/c3ccccc3)ccc2N1` (centres unmarked) [Example 6, 10-[(E)-2-phenylvinyl]-1,2,3,4,4a,5-hexahydropyrazino[1,2-a][1,5]benzodiazepin-6(7H)-one], in test [1], the EC50 was 0.0298 µM and the maximum response (Emax) amounted to 89.5%. Besides, the Ki in test [2] was 0.0035 µM.

Take `O=C1CC2CNCCN2c2ccc(F)cc2N1` (centres unmarked) [Example 34, 9-fluoro-1,2,3,4,4a,5-hexahydropyrazino[1,2-a][1,5]-benzodiazepin-6(7H)-one]: in test [1], the EC50 stood at 0.0893 µM and the Emax came to 100%. Further, the Ki in test [2] was 0.19 µM.

With `O=C1CC2CNCCN2c2cc(Br)ccc2N1` (centres unmarked) [Example 4, 10-bromo-1,2,3,4,4a,5-hexahydropyrazino[1,2-a][1,5]-benzodiazepin-6(7H)-one], in test [1], the EC50 is 0.0028 µM and the Emax amounted to 92%. The compound further displayed a Ki in test [2] of 0.0069 µM.

In the case of `O=C1CC2CNCCN2c2cc(CCc3ccccc3)ccc2N1` (centres unmarked) [Example 29, 10-(2-phenylethyl)-1,2,3,4,4a,5-hexahydropyrazino[1,2-a][1,5]benzodiazepin-6(7H)-one], in test [1], the EC50 stood at 0.0043 µM and the Emax was 104%. Moreover, in test [2], the affinity corresponds to a Ki of 0.011 µM.

`O=C1CC2CNCCN2c2ccc(-c3ccc(Cl)cc3)cc2N1` (centres unmarked) [Example 14, 9-(4-chlorophenyl)-1,2,3,4,4a,5-hexahydropyrazino[1,2-a][1,5]-benzodiazepin-6(7H)-one] registered a Ki in test [2] of 0.17 µM.
